Reference: patent US20250108023A1, “Products for Masking Bitterness” (The Third People's Hospital of Henan Province, priority 2023, published 2025)

Target: T1, sodium ion channel of Trpm5 bitter receptor (Mus musculus, UniProt Q9JJH7)
T1 construct: Put the removed tongue in a 2 ml EP tube, add 1-1.5 ml of 0.25% trypsin solution; from tissue; host or cells: cells dissociated with trypsin from mouse tongue
T1 sequence (Q9JJH7 1-1158): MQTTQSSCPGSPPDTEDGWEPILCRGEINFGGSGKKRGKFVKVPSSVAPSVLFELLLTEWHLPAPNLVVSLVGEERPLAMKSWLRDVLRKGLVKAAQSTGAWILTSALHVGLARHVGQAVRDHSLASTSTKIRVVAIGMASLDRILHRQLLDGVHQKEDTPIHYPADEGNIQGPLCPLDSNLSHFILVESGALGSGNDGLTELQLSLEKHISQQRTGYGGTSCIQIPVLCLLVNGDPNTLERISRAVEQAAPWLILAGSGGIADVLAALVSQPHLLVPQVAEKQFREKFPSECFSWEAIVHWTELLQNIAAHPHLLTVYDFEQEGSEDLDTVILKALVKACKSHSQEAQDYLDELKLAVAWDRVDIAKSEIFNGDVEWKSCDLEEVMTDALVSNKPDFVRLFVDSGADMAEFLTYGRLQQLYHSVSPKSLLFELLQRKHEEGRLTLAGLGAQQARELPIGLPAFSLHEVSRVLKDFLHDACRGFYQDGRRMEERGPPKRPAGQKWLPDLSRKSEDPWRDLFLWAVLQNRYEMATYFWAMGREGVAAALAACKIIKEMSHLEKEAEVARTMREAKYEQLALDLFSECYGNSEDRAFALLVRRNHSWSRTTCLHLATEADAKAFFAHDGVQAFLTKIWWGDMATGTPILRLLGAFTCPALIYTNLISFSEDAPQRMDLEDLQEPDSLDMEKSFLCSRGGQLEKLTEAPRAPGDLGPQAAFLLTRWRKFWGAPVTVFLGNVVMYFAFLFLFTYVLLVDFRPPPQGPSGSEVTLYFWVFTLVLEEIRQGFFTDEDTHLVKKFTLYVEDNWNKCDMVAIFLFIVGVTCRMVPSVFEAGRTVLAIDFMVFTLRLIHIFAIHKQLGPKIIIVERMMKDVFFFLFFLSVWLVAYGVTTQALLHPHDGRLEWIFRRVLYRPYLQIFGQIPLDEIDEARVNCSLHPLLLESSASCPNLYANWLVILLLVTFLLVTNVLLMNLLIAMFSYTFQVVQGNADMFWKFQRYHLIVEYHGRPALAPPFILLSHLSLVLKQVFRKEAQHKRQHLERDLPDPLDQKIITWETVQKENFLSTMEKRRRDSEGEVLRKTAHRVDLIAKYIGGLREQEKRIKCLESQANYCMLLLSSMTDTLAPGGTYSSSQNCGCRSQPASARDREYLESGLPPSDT
Test: Immunofluorescence experiment of sodium ion channels in mouse tongue cells stimulated with bitter agent
Format: cell-based, mice
Conditions: for blocking effect on the sodium ion channel (result analysis in words): judged from change of sodium ion fluorescence after bitter drug
Experimental: The mouse was killed by dislocation, and the tongue was removed (minimizing tongue bleeding), disinfected with alcohol for 2 minutes (adding sodium citrate for anticoagulation), and washed with D-Hanks solution or rinsed with 10 ml of saline solution drawn by a syringe.
Take out the centrifuge tube from the constant temperature incubator, shake for 2 minutes, blow the undigested tongue several times with the gun tip, take out the tongue, cover it with the EP tube cap, put it in a centrifuge, centrifuge at 3000 rpm for 3 minutes, discard the supernatant, add cell culture medium (containing 10% inactivated serum), blow and disperse the cells, and place it in a 37° C. constant temperature incubator for 30 min to allow the cells to recover.
(1) Take out the prepared ENG-2 AM storage solution and warm it to room temperature for use, keeping it away from light. The concentration of the pre-prepared stock solution is 2 mM and it is stored at −18° C. for future use.
(2) Dilute the ENG-2 AM+DMSO stock solution to a […] working solution using serum-free culture medium.
(3) Load the probe in a serum-free culture medium containing an appropriate concentration of AM probe.
Take out the cells from the incubator, centrifuge, and discard the culture medium. Wash the cells once with D-Hanks solution, centrifuge, and discard the culture medium. Add 1 ml of culture medium again, then add 300 ul of sodium ion probe dilution solution, blow and disperse the cells, and incubate the cells at room temperature or 37° C. for 1 hour.
At the end of incubation, centrifuge at 100 rpm for 2 minutes, discard the supernatant, add 500 ul of cell culture medium without AM probe, blow and disperse the cells, and incubate for 20-60 min to ensure that the cells completely deesterify the AM group.
(4) Take 10 ul of incubation solution and drop it into the center of the cell counting plate, cover it with a slide, and observe it under a fluorescence microscope.
(5) Use a low-power microscope to find the cells, open the fluorescence path, detect the fluorescence signal with a fluorescence microscope, change to a high-power microscope, find the appropriate observation cells, observe and take pictures to record the initial signal.
(2) Experimental drugs: Add 5 ul of the tested drug to one side of the cover glass on the cell counting plate, use absorbent paper to absorb water on the opposite side, let the solution soak the cells, and then use a fluorescence microscope to observe and take 3-5 photos, one every 1-2 minutes; then add 5 ul of the standard bitter drug to one side of the cover glass on the cell counting plate, use absorbent paper to absorb water on the opposite side, let the solution soak the cells, and then use a fluorescence microscope to observe and take 3-5 photos, one every 1-2 minutes.
(5) Data analysis: Use Image J-Fiji software to analyze the images, compare the average values of the fluorescence pixels, remove the base number and compare them in the table, draw FIGS. 4-6, and use SPSS18.0 to perform chi-square tests to compare the differences between the data groups.

[1] = Bitterant 60 s (2% metronidazole solution)
[2] = Bitterant 120 s (2% metronidazole solution)
[3] = Bitterant 180 s (2% metronidazole solution)
[4] = Initial (before addition of drug), sodium ion dye ENG-2 AM
[5] = Bitterant 240 s (2% metronidazole solution)

Row | average value of fluorescence brightness (Addition of drugs) | average value of fluorescence brightness, base number removed (Addition of drugs) | average value of fluorescence brightness [1] | average value of fluorescence brightness, base number removed [1] | average value of fluorescence brightness [2] | average value of fluorescence brightness, base number removed [2] | average value of fluorescence brightness [3] | average value of fluorescence brightness, base number removed [3] | average value of fluorescence brightness, base number removed (Initial) | average value of fluorescence brightness [4] | Molecule | blocking effect on the sodium ion channel (result analysis in words) | average value of fluorescence brightness [5] | average value of fluorescence brightness, base number removed [5]
1 | 27.367 | 0.082 | 27.287 | 0.002 | 27.21 | −0.075 | 27.127 | −0.158 | 0 | 27.285 | NCCCC(=O)O [GABA, 4-aminobutyric acid] | have poor effects and do not have bitterness masking effect |  | 
2 | 28.425 | −0.113 | 28.141 | −0.397 | 27.831 | −0.707 | 28.191 | −0.347 | 0 | 28.538 | CC1CCC(C(C)C)C(OC(=O)C(C)O)C1 (stereo not shown) [Menthyl lactate, 2-hydroxypropionic acid-5-methyl-2-(1-methylethyl)cyclohexyl ester] | can block the sodium ion channel of Trpm5 bitter receptor |  | 
3 | 28.082 | 0.093 | 27.496 | −0.493 | 27.697 | −0.292 | 27.919 | −0.07 | 0 | 27.989 | Hydroxyvanillic acid | have poor effects and do not have bitterness masking effect |  | 

Row | Molecule | average value of fluorescence brightness (Addition of drugs) | average value of fluorescence brightness, base number removed (Addition of drugs) | average value of fluorescence brightness [1] | average value of fluorescence brightness, base number removed [1] | average value of fluorescence brightness [2] | average value of fluorescence brightness, base number removed [2] | average value of fluorescence brightness [3] | average value of fluorescence brightness, base number removed [3] | average value of fluorescence brightness, base number removed (Initial) | average value of fluorescence brightness [4] | blocking effect on the sodium ion channel (result analysis in words) | average value of fluorescence brightness [5] | average value of fluorescence brightness, base number removed [5]
4 | CC1CCC(C(C)C)C(O)C1 (stereo not shown) [Menthol, 2-isopropyl-5-methylcyclohexanol] | 22.118 | −0.435 | 22.04 | −0.513 | 21.924 | −0.629 | 21.907 | −0.646 | 0 | 22.553 | can block the sodium ion channel of Trpm5 bitter receptor | 20.562 | −1.991
